Results on 24 molecules are retold here after patent US12528815B2, “5-amino-8-(4-pyridyl)-[1,2,4]triazolo[4,3-c]pyrimidin-3-one compounds for use against cancer” (Nxera Pharma UK Limited, priority 2020, dated 2026).

Test [1] addresses T1, human adenosine A1 receptor (Homo sapiens, UniProt P30542).
T1 construct: expressed in transfected cells; host or cells: HEK293 cells infected with BacMam (the same paragraph also labels the preparation CHO-hA1)
T1 sequence (P30542 1-326): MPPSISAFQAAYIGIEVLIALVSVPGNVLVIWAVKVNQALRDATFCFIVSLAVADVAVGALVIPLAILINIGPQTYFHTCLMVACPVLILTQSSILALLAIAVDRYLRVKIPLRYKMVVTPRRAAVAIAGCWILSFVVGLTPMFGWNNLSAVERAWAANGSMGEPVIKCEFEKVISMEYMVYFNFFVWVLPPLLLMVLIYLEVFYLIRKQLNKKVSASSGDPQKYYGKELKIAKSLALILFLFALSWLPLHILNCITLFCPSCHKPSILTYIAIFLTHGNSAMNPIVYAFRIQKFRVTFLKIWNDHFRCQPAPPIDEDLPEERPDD
The test can be described thus: Inhibition binding assay, human adenosine A1 receptor membranes, [3H]DPCPX. Particulars: 1 nM [3H]DPCPX, 25° C., 1 h; IC50 converted to Ki with Cheng-Prusoff; read-out: A1 pKi (converted). Summed up:
(§1)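 Membranes from BacMam-infected HEK293 cells (0.2 μg A2A, 1.4 μg A1) incubated 1 h at 25° C with test compound and 1 nM [3H]ZM241385 (A2A; 50 mM Tris-HCl pH 7.4) or [3H]DPCPX (A1; plus 100 mM NaCl, 10 mM MgCl2). Nonspecific: 1 μM CGS15943 or DPCPX. Filtration, scintillation; IC50 converted to Ki via Cheng-Prusoff.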

Test [2] concerns the target T2, human adenosine A2A receptor (Homo sapiens, UniProt P29274).
T2 construct: expressed in transfected cells; host or cells: HEK293 cells infected with BacMam
The test can be described thus: Inhibition binding assay, human adenosine A2A receptor membranes, [3H]ZM241385. The note with it: 1 nM [3H]ZM241385, HEK293-hA2A membranes, 25° C., 1 h; IC50 converted to Ki with Cheng-Prusoff; read-out: A2A pKi (converted). An outline of the steps: as §1

T2 sequence (P29274 whole entry): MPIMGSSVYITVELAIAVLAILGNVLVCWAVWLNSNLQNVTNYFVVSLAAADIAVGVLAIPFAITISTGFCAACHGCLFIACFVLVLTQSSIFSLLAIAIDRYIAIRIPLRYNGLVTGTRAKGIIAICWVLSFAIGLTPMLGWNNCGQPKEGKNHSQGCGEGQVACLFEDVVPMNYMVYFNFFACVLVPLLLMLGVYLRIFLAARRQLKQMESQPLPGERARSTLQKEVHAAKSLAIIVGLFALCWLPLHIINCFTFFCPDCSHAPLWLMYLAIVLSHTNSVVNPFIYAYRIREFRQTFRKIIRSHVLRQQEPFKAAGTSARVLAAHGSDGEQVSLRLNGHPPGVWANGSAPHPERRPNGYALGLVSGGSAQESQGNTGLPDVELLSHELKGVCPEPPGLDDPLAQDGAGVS

Regarding `Cc1cc(-c2c(-c3ccccc3)nc(N)n3c(=O)n(Cc4ccc(F)c(=O)n4C)nc23)cc(C)n1` [Example 1-10, 5-amino-8-(2,6-dimethyl-4-pyridyl)-2-[(5-fluoro-1-methyl-6-oxo-2-pyridyl)methyl]-7-phenyl-[1,2,4]triazolo[4,3-c]pyrimidin-3-one], the Ki in test [1] is 794 nM; in test [2], 20 nM.

Regarding `Cc1cc(-c2c(-c3ccccc3)nc(N)n3c(=O)n(C(CNCC(F)(F)F)c4ccccc4)nc23)cc(C)n1` (stereo not drawn) [Example 1-31, 5-amino-8-(2,6-dimethyl-4-pyridyl)-7-phenyl-2-[1-phenyl-2-(2,2,2-trifluoroethylamino)ethyl]-[1,2,4]triazolo[4,3-c]pyrimidin-3-one], the figures for the Ki in test [1] and in test [2] were 316 nM and 10 nM, respectively.

On to `Cc1cc(-c2c(-c3ccccc3)nc(N)n3c(=O)n(Cc4cccnn4)nc23)cc(C)n1` [Example 1-5, 5-amino-8-(2,6-dimethyl-4-pyridyl)-7-phenyl-2-(pyridazin-3-ylmethyl)-[1,2,4]triazolo[4,3-c]pyrimidin-3-one], for which the Ki in test [1] was 251 nM; in test [2], 2.51 nM.

Regarding `Cc1cc(-c2c(-c3ccccc3)nc(N)n3c(=O)n(Cc4ccc(O)cc4)nc23)cc(C)n1` [Example 1-4, 5-amino-8-(2,6-dimethyl-4-pyridyl)-2-[(4-hydroxyphenyl)methyl]-7-phenyl-[1,2,4]triazolo[4,3-c]pyrimidin-3-one], the Ki is 501 nM in test [1] and 1.26 nM in test [2].

As to `Cc1cc(-c2c(-c3ccccc3)nc(N)n3c(=O)n(CCC(C)C)nc23)cc(C)n1` [Example 2-5, 5-amino-8-(2,6-dimethyl-4-pyridyl)-2-isopentyl-7-phenyl-[1,2,4]triazolo[4,3-c]pyrimidin-3-one], the results for the Ki in test [1] and in test [2] were 39.8 nM and 0.794 nM, respectively.

With `Cc1cc(-c2c(-c3ccccc3)nc(N)n3c(=O)n(CC(N)=O)nc23)cc(C)n1` [Example 2-22, 2-[5-amino-8-(2,6-dimethyl-4-pyridyl)-3-oxo-7-phenyl-[1,2,4]triazolo[4,3-c]pyrimidin-2-yl]acetamide], the Ki in test [1] was 1000 nM; in test [2] it was 200 nM.

For `Cc1cc(-c2c(-c3ccccc3)nc(N)n3c(=O)n(CCc4ccccc4)nc23)cc(C(F)(F)F)n1` [Example 1-88, 5-amino-8-[2-methyl-6-(trifluoromethyl)-4-pyridyl]-7-phenyl-2-(2-phenylethyl)-[1,2,4]triazolo[4,3-c]pyrimidin-3-one], the Ki in test [1] was 100 nM; in test [2] it was 12.6 nM.

As to `Cc1cc(-c2c(-c3ccccc3)nc(N)n3c(=O)n(C[C@@H]4CN(C(=O)OC(C)(C)C)CCN4C)nc23)cc(C)n1` [Example 2-83, tert-butyl (S)-3-((5-amino-8-(2,6-dimethylpyridin-4-yl)-3-oxo-7-phenyl-[1,2,4]triazolo[4,3-c]pyrimidin-2(3H)-yl)methyl)-4-methylpiperazine-1-carboxylate], the values for the Ki in test [1] and in test [2] were 1000 nM and 10 nM, respectively.

For `COc1nc(N)n2c(=O)n(CCC(F)(F)F)nc2c1-c1cc(C)nc(C)c1` [Example 3-8, 5-amino-8-(2,6-dimethyl-4-pyridyl)-7-methoxy-2-(3,3,3-trifluoropropyl)-[1,2,4]triazolo[4,3-c]pyrimidin-3-one], the Ki in test [1] was above 3160 nM; in test [2], 1260 nM.

Take `CC#Cc1nc(N)n2c(=O)n(CCC(F)(F)F)nc2c1-c1cc(C)nc(C)c1` [Example 3-7, 5-amino-8-(2,6-dimethyl-4-pyridyl)-7-prop-1-ynyl-2-(3,3,3-trifluoropropyl)-[1,2,4]triazolo[4,3-c]pyrimidin-3-one]: the Ki in test [1] is above 3980 nM; in test [2] it was 31.6 nM.

As for `Cc1cc(-c2c(-c3ccc(F)cc3)nc(N)n3c(=O)n(CCN4CCCCC4)nc23)cc(C)n1` [Example 2-104, 5-amino-8-(2,6-dimethyl-4-pyridyl)-7-(4-fluorophenyl)-2-[2-(1-piperidyl)ethyl]-[1,2,4]triazolo[4,3-c]pyrimidin-3-one], the figures for the Ki in test [1] and in test [2] were above 3980 nM and 79.4 nM, respectively.

Consider `Cc1cc(-c2c(-c3ccccc3)nc(N)n3c(=O)n(Cc4ncc(F)cc4Cl)nc23)cc(C)n1` [Example 1-39, 5-amino-2-[(3-chloro-5-fluoro-2-pyridyl)methyl]-8-(2,6-dimethyl-4-pyridyl)-7-phenyl-[1,2,4]triazolo[4,3-c]pyrimidin-3-one], for which the Ki is 63.1 nM in test [1] and 0.631 nM in test [2].

`COc1ccc(Cn2nc3c(-c4cc(C)nc(Cl)c4)c(-c4ccccc4)nc(N)n3c2=O)nc1` [Example 1-77, 5-amino-8-(2-chloro-6-methyl-4-pyridyl)-2-[(5-methoxy-2-pyridyl)methyl]-7-phenyl-[1,2,4]triazolo[4,3-c]pyrimidin-3-one]: the Ki in test [1] was 200 nM; in test [2], 0.398 nM.

Regarding `Cc1cc(-c2c(-c3cccnc3)nc(N)n3c(=O)n(CCC(F)(F)F)nc23)cc(C)n1` [Example 2-39, 5-amino-8-(2,6-dimethyl-4-pyridyl)-7-(3-pyridyl)-2-(3,3,3-trifluoropropyl)-[1,2,4]triazolo[4,3-c]pyrimidin-3-one], the Ki in test [1] was above 3980 nM; in test [2] it was 50.1 nM.

For the molecule `Cc1cc(-c2c(-c3ccccc3)nc(N)n3c(=O)n(C4CSCc5ccccc54)nc23)cc(C)n1` (stereo not drawn) [Example 1-13, 5-amino-8-(2,6-dimethyl-4-pyridyl)-2-isothiochroman-4-yl-7-phenyl-[1,2,4]triazolo[4,3-c]pyrimidin-3-one], the Ki is 158 nM in test [1] and 1.26 nM in test [2].

As to `Cc1cc(-c2c(-c3ccccc3)nc(N)n3c(=O)n(CCc4ccc(F)cc4)nc23)cc(C)n1` [Example 1-83, 5-amino-8-(2,6-dimethyl-4-pyridyl)-2-[2-(4-fluorophenyl)ethyl]-7-phenyl-[1,2,4]triazolo[4,3-c]pyrimidin-3-one], the Ki was 251 nM in test [1] and 20 nM in test [2].

In the case of `Cc1cc(-c2c(-c3ccccc3)nc(N)n3c(=O)n(CC4CCCOC4)nc23)cc(C)n1` (stereo not drawn) [Example 2-81, 5-amino-8-(2,6-dimethyl-4-pyridyl)-7-phenyl-2-(tetrahydropyran-3-ylmethyl)-[1,2,4]triazolo[4,3-c]pyrimidin-3-one], the Ki in test [1] is 316 nM; in test [2], 0.501 nM.

In the case of `Cc1cc(N2CCC(NCCn3nc4c(-c5cc(C)nc(C)c5)c(-c5ccccc5)nc(N)n4c3=O)CC2)[nH]n1` [Example 1-95, 5-amino-8-(2,6-dimethyl-4-pyridyl)-2-[2-[[1-(3-methyl-1H-pyrazol-5-yl)-4-piperidyl]amino]ethyl]-7-phenyl-[1,2,4]triazolo[4,3-c]pyrimidin-3-one], the figures for the Ki in test [1] and in test [2] were above 2000 nM and 316 nM, respectively.

Turning to `Cc1cc(-c2c(-c3ccc(F)cc3)nc(N)n3c(=O)n(Cc4cccnn4)nc23)cc(CO)n1` [Example 1-58, 5-amino-7-(4-fluorophenyl)-8-[2-(hydroxymethyl)-6-methyl-4-pyridyl]-2-(pyridazin-3-ylmethyl)-[1,2,4]triazolo[4,3-c]pyrimidin-3-one], the Ki in test [1] was 631 nM; in test [2], 12.6 nM.

In the case of `Cc1cc(-c2c(-c3ccccc3)nc(N)n3c(=O)n(CCN4CCOCC4)nc23)cc(C)n1` [Example 2-99, 5-amino-8-(2,6-dimethyl-4-pyridyl)-2-(2-morpholinoethyl)-7-phenyl-[1,2,4]triazolo[4,3-c]pyrimidin-3-one], the Ki in test [1] is 794 nM; in test [2], 31.6 nM.

Turning to `Cc1cc(-c2c(-c3ccccc3)nc(N)n3c(=O)n(CCN[C@@H](C)c4cccc(C)n4)nc23)cc(C)n1` [Example 1-94, 5-amino-8-(2,6-dimethyl-4-pyridyl)-2-[2-[[(1S)-1-(6-methyl-2-pyridyl)ethyl]amino]ethyl]-7-phenyl-[1,2,4]triazolo[4,3-c]pyrimidin-3-one], the Ki was 398 nM in test [1] and 10 nM in test [2].

For the molecule `Cc1cc(-c2c(-c3ccccc3)nc(N)n3c(=O)[nH]nc23)cc(C)n1` [Example 2-1, 5-amino-8-(2,6-dimethyl-4-pyridyl)-7-phenyl-2H-[1,2,4]triazolo[4,3-c]pyrimidin-3-one], the Ki was 79.4 nM in test [1] and 5.01 nM in test [2].

For the molecule `Cc1cc(-c2c(-c3ccc(F)cc3)nc(N)n3c(=O)n(CCN4CCCCC4)nc23)cc(Cl)n1` [Example 2-105, 5-amino-8-(2-chloro-6-methyl-4-pyridyl)-7-(4-fluorophenyl)-2-[2-(1-piperidyl)ethyl]-[1,2,4]triazolo[4,3-c]pyrimidin-3-one], the Ki is above 2510 nM in test [1] and 31.6 nM in test [2].

As for `Cc1cc(-c2c(N3CCCCC3)nc(N)n3c(=O)n(CCC(F)(F)F)nc23)cc(C)n1` [Example 3-2, 5-amino-8-(2,6-dimethyl-4-pyridyl)-7-(1-piperidyl)-2-(3,3,3-trifluoropropyl)-[1,2,4]triazolo[4,3-c]pyrimidin-3-one], the Ki is above 3160 nM in test [1] and 6.31 nM in test [2].
